Patent US11236073B2, “ODM-201 crystalline form, preparation method therefor, and pharmaceutical composition thereof” (Hangzhou SoliPharma Co., Ltd., priority 2017, dated 2022)
≈ marks a conversion by molar mass, not a printed value. Entries after “also recorded” stand apart in the source; their conditions may differ.

What was measured:
Format in all cases: physicochemical
[1] = Crystalline form stability experiment (XRD after storage); settings: stored 7 days at high temperature 60° C., high moisture content 97% RH, and 40° C.-75% RH
Experimental: X-ray powder diffraction (XRPD): performed on Bruker D8 Advance diffractometer. Samples were tested at room temperature. Testing conditions: scan range 3-40° 2θ, step size 0.02°2θ, and speed 0.2 s/step.
Crystalline form stability experiment: 15 mg of amorphous ODM-201, ODM-201 Form 1, ODM-201 Form 2, ODM-201 Form 4 and ODM-201 Form 5 in the present invention were respectively placed under the following different conditions: high temperature 60° C., high moisture content 97% RH, and 40° C.-75% RH. The samples were stored for 7 days before analyzed by XRD crystalline form measurements.

[2] = Chemical stability experiment (HPLC purity after storage); settings: for reduction of chemical purity after storage: dry condition (desiccator) at 60° C. for 7 days; for Purity (%): dry condition at 60° C., HPLC
Experimental: HPLC purity data were collected on Ultimate 3000 high performance liquid chromatography under the following conditions: column AY-H (4.6*100 mm, 5 μm) detection wavelength 270 nm, column temperature 40° C., flow rate 0.8 mL/min, injection volume 5 μL. The sample was dissolved in ethanol to make a solution concentration about 1 mg/mL, and a gradient method using HPLC measurements to determine the purity of the sample. […]

[3] = Apparent water solubility; settings: stirred 1 hour
Experimental: ODM-201 Form 1, ODM-201 Form 2, ODM-201 Form 3, ODM-201 Form 4 and ODM-201 Form 5 in the present invention were tested for the apparent water solubility, and the specific operations were as follows.
Weighed accurately and placed 15 mg of sample in a 20 mL glass vial containing 5 mL of water, and placed the vials at 25±2° C. and 37±2° C. water bath respectively, stirred in dark (about 200 rpm/min) for 1 hour, filtered with a 0.45 µm filter and took the supernatant, diluted to a certain concentration, analyzed the concentration by HPLC.

[4] = Isothermal sorption / dynamic vapor sorption (hygroscopicity); settings: between 0% RH and 80% RH
Experimental: Dynamic vapor sorption data and isothermal sorption data were collected on TA Instruments Q5000 TGA. Method: A sample of 1 to 10 mg was placed in a platinum pan; the weight change of the sample during the change in relative humidity from 0% to 80% to 0% was measured.

Row | Compound | The test results after 7 days (crystalline form by XRD) [1] | reduction of chemical purity after storage [2] | Purity (%) ([2]; 1 day) | Purity (%) ([2]; 7 days) | Solubility ([3]; 25 ± 2° C.) [µg/mL] | Solubility ([3]; 37 ± 2° C.) [µg/mL] | moisture sorption (weight change) [4] | The test results after 7 days (crystalline form by XRD) ([1]; listed as ODM-201 amorphous form)
1 | CC(O)c1cc(C(=O)N[C@@H](C)Cn2ccc(-c3ccc(C#N)c(Cl)c3)n2)n[nH]1 (stereo partly drawn) [ODM-201 Form 2, N—((S)-1-(3-(3-chloro-4-cyanophenyl)-1H-pyrazol-1-yl)prop-2-yl)-5-(1-hydroxyethyl)-1H-pyrazole-3-carboxamide] | kept their original crystalline forms; also recorded: keeps its form unchanged; also recorded: Form 2 | still kept their original respective purity level; also recorded: essentially unchanged | 99.6 | 99.6 | 27.6 (≈ 69.2 µM) | 54.8 (≈ 137 µM) | 2.5% | 
2 | CC(O)c1cc(C(=O)N[C@@H](C)Cn2ccc(-c3ccc(C#N)c(Cl)c3)n2)n[nH]1 (stereo partly drawn) [amorphous ODM-201, N—((S)-1-(3-(3-chloro-4-cyanophenyl)-1H-pyrazol-1-yl)prop-2-yl)-5-(1-hydroxyethyl)-1H-pyrazole-3-carboxamide, reference compound] | begins to show a weak crystalline state; also recorded: Amorphous with weak crystalline peaks | more than 1% | 99.7 | 98.2 |  |  | 6.4% | began to show a weak crystalline state
3 | CC(O)c1cc(C(=O)N[C@@H](C)Cn2ccc(-c3ccc(C#N)c(Cl)c3)n2)n[nH]1 (stereo partly drawn) [ODM-201 Form 1, N—((S)-1-(3-(3-chloro-4-cyanophenyl)-1H-pyrazol-1-yl)prop-2-yl)-5-(1-hydroxyethyl)-1H-pyrazole-3-carboxamide] | keeps its form unchanged; also recorded: kept their original crystalline forms; also recorded: Form 1 | essentially unchanged; also recorded: still kept their original respective purity level | 99.7 | 99.6 |  | 17.4 (≈ 43.6 µM) | less than 0.3% | 
4 | CC(O)c1cc(C(=O)N[C@@H](C)Cn2ccc(-c3ccc(C#N)c(Cl)c3)n2)[nH]n1 (stereo partly drawn) [ODM-201 Form 3, N—((S)-1-(3-(3-chloro-4-cyanophenyl)-1H-pyrazol-1-yl)prop-2-yl)-5-(1-hydroxyethyl)-1H-pyrazole-3-carboxamide] |  |  |  |  | 12.5 (≈ 31.3 µM) | 24.3 (≈ 60.9 µM) |  | 
5 | CC(O)c1cc(C(=O)N[C@@H](C)Cn2ccc(-c3ccc(C#N)c(Cl)c3)n2)n[nH]1 (stereo partly drawn) [ODM-201 Form 4, N—((S)-1-(3-(3-chloro-4-cyanophenyl)-1H-pyrazol-1-yl)prop-2-yl)-5-(1-hydroxyethyl)-1H-pyrazole-3-carboxamide] | kept their original crystalline forms; also recorded: keeps its form unchanged; also recorded: Form 4 | still kept their original respective purity level; also recorded: essentially unchanged | 99.2 | 99.1 | 59.5 (≈ 149 µM) | 88.6 (≈ 222 µM) | less than 0.2% | 
6 | CC(O)c1cc(C(=O)N[C@@H](C)Cn2ccc(-c3ccc(C#N)c(Cl)c3)n2)n[nH]1 (stereo partly drawn) [ODM-201 Form 5, N—((S)-1-(3-(3-chloro-4-cyanophenyl)-1H-pyrazol-1-yl)prop-2-yl)-5-(1-hydroxyethyl)-1H-pyrazole-3-carboxamide] | kept their original crystalline forms; also recorded: keeps its form unchanged; also recorded: Form 5 | still kept their original respective purity level; also recorded: essentially unchanged | 99.6 | 99.5 | 17.7 (≈ 44.4 µM) | 29.5 (≈ 74 µM) | less than 0.5% | 
